The structures appear in SMILES notation. Read-outs that look alike come from different tables or passages of the source.

One series deals with Pfa1 cells. Nature of the series: Inhibition of non-apoptotic cell death after tamoxifen-induced GPx4 knockout (Pfa1/TAM, Example B.4). Type of series: cell-based, mouse. The source says: To combat high intracellular ROS levels, mammalian cells have evolved an intricate network of ROS scavenging in cells, in which the thioredoxin and glutathione (GSH) dependent systems prevail. […] Knockout of GPx4 in neurons causes massive neurodegeneration in cortical, cerebellar and hippocampal neurons underscoring the high relevance of ROS-induced cell death signaling in the brain. Briefly, immortalised fibroblasts from these mice were made to contain tamoxifen-inducible CreERT2, which catalyzes the functional ablation of both copies of GPx4 and resulting in a complete knockout of GPx4, a massive ROS burst, and cell death in cell culture. These cells (Pfa1 cells) were used to characterize compounds disclosed herein, whereby tamoxifen (TAM) was given on day 0 along with the compound under test, and 72 hours later cell survival was evaluated using AlamarBlue.

Another series relates to SH-SY5Y cells. Nature of the series: Specificity: TNF-alpha-induced apoptosis in SH-SY5Y cells (Example B.3). Type of series: cell-based, human. To be noted: compound 1 μM, TNF-alpha 10 ng/mL, FIG. 1. On the procedure: SH-SY5Y cells were propagated and seeded in 96-well plates, together with compound N-1, N-2, N-10 of Table 1-N (FIG. 1A), compound O/S-6 or O/S-3 of Table 1-O/S (FIG. 1B), or compound C-12, C-91, or C-205 of Table 1-C (FIG. 1C) (each 1 μM) and TNF-alpha was added (final concentration: 10 ng/mL) to induce apoptosis. The apoptosis and pan-caspase inhibitor z-vad (final concentration: 50 μM) and the necroptosis inhibitor Necrostatin-1 (Nec-1; final concentration: 5 μM) were used for comparison. Control wells were established with vehicle only (DMSO), with and without treatment with TNF-alpha to induce apoptosis. Cells were incubated, and cell survival was detected and quantified. Percentage cell survival after TNF-alpha-induced apoptosis is shown (error bars indicate standard deviation (SD)).
Briefly, SH-SY5Y cells were propagated and seeded in 96-well plates, together with the compound to be tested (1 μM), generally as described in Example B.1, except they were seeded at 1,000 cell/well and instead of BSO, TNF-alpha (Invitrogen) was added to a final concentration of 10 ng/mL to induce apoptosis. The apoptosis and pan-caspase inhibitor Z-VAD-fink (Enzo Life Science; final concentration 50 μM) and the necroptosis inhibitor Necrostatin-1 (Nec-1; Enzo Life Science; final concentration 5 μM) were used for comparison. Control wells were established with vehicle only (DMSO), with and without treatment with TNF-alpha to induce apoptosis. Cells were incubated, and cell survival was detected and quantified as described in Example B.1.

In series [1] the test system is mouse hippocampal cell line (Ht22). Nature of the series: Inhibition of glutamate-induced non-apoptotic cell death (Ht22/GLU, Example B.2). Format: cell-based. From the text:
Glutamate toxicity is conferred on cells from the mouse hippocampal cell line (Ht22) by inhibition of the cysteine/glutamate antiporter, System xc-, leading to impaired cysteine uptake and subsequent GSH depletion. This model is frequently used for mimicking glutathione depletion following oxidative stress in stroke, brain trauma and other neurodegenerative diseases and cellular conditions following ischemia (for example: van Leyen et al, J. Neurochem. 92:824-30 (2005)).
Compounds disclosed herein were evaluated for their ability to promote cell survival upon administration of a lethal dose of glutamate (GLU) to the cell-culture medium.
Briefly, Ht22cells (ATCC or Invitrogen) were propagated DMEM supplemented with 10% FBS/1% Penicillin-Streptomycin, and then seeded onto 96-well plates at a concentration of 2,000 cells/well in 100 μL of MEDIA, simultaneously with glutamate (Sigma Aldrich) to a final concentration of 5 mM, together with increasing concentrations of the compound to be tested (0.5 pM to 100 μM), and the plates incubated at 37° C./5% CO2 for 72 hours. Compound dilutions were prepared from 10 mM stocks dissolved in DMSO and diluted in media. Cells treated with glutamate alone were used as negative control and alpha-tocopherol (Sigma Aldrich) was used as positive control. Compound concentrations were tested in triplicate. After incubation, cell survival was detected and quantified as described in Example B.1.

Series [2] in a line: Cellular toxicity, Pfa1 cells without TAM (Example B.5). Format: cell-based. The settings on record: mouse, * not tested at higher concentrations, read-out: TC50 (the source's name). From the text: An estimate of the toxicity for compounds disclosed herein was obtained by using the same assay as described in Example B.4, but without the addition of TAM. […] Such TC50 values obtained for certain compounds disclosed herein, together with an approximate therapeutic window (estimated by dividing each TC50 by the corresponding IC50 determined from example B.4) are shown in Table 3 and Table 4.

The mark [3] stands for this setting: Mus musculus, methylated analogues of C-2.
Where [4] appears, read: HT-22, 5 mM glutamate, 72 hours, cell survival, read-out: Ht22/GLU.
Where [5] appears, read: Mus musculus, tamoxifen on day 0, cell survival after 72 hours.
Setting [6] is: HT-22, 72 h, read-out: Ht22/GLU [μM].

Compound `CN1/C(=N/Cc2cccc(Cl)c2)C2(CCCCC2)N(C)c2ccccc21` [C-2-2Me] had an IC50 in the series on Pfa1 cells (setting [3]) above 10 µM.

For the compound `CN1c2ccccc2N=C(NCc2cccc(Cl)c2)C12CCCCC2` [C-2-Me-I], the IC50 with Pfa1 cells (methylated analogues of C-2) was above 10 µM.

On to `Clc1cccc(CNC2=Nc3ccccc3NC23CCCCC3)c1` [C-2], for which the IC50 in the series on Pfa1 cells (setting [3]) was below 0.01 µM.

In the case of `CC1CCC2(CC1)Nc1ccccc1N=C2NCc1ccccc1Cl` (stereo not shown) [C-91], in the series on SH-SY5Y cells, the “Percentage cell survival after TNF-alpha-induced apoptosis” value (shortened to “Percentage cell survival”) is “Non-inhibition of apoptotic cell-death”.

On to `Clc1ccccc1CNC1=Nc2ccccc2NC12CCCCCC2` [C-205], for which the “Percentage cell survival” value in the series with SH-SY5Y cells is “Non-inhibition of apoptotic cell-death”.

`CC(C)CCNC1=Nc2ccccc2NC12CCCCCC2` [D-1]: the IC50 in series [1] (setting [4]) was below 1 µM; in the series on Pfa1 cells (setting [5]), below 2 µM. Also, the CC50 in series [2] was 10 to 50 µM.

For the compound `c1ccc2c(c1)CCC2NC1=Nc2ccccc2NC12CCCCC2` [D-2], the IC50 in series [1] (setting [4]) was below 1 µM; in the series on Pfa1 cells (setting [5]) it was below 2 µM. Besides, the CC50 in series [2] was 10 to 50 µM.

As to `c1ccc2c(c1)CCC2NC1=Nc2ccccc2NC12CCOCC2` [D-3], the IC50 is below 5 µM in series [1] (setting [4]) and below 2 µM in the series with Pfa1 cells (setting [5]). In addition, in series [2], the CC50 fell in the range of 50 to 100 µM.

`c1ccc2c(c1)CCCC2NC1=Nc2ccccc2NC12CCCCC2` [D-4]: the IC50 in series [1] (setting [4]) was below 0.5 µM; in the series on Pfa1 cells (setting [5]) it was below 0.2 µM. Besides, the CC50 in series [2] lay in the range of 20 to 50 µM.

As to `c1ccc2c(c1)CCC2NC1=Nc2ccccc2NC12CCNCC2` [D-5], the IC50 in series [1] (setting [4]) is below 0.2 µM; with Pfa1 cells (setting [5]), below 0.1 µM. The CC50 in series [2] lay within 5 to 10 µM.

Regarding `c1ccc2c(c1)N=C(NCCc1c[nH]c3ccccc13)C1(CCNCC1)N2` [D-6], the IC50 is below 0.5 µM in series [1] (setting [4]) and below 0.1 µM with Pfa1 cells (setting [5]). Also, the CC50 in series [2] lay within 5 to 10 µM.

With `c1ccc2c(c1)CCCC2NC1=Nc2ccccc2NC12CCNCC2` [D-7], the IC50 in series [1] (setting [4]) is below 0.2 µM; in the series on Pfa1 cells (setting [5]), below 0.1 µM. In addition, the CC50 in series [2] lay within 10 to 20 µM.

As for `Clc1cccc(CNC2=Nc3ccccc3NC23CC2CCC(C3)N2)c1` [D-8], the IC50 (in series [1] (setting [6]); with Pfa1 cells (setting [5])) was below 0.05 µM in each case. Besides, the CC50 in series [2] lay within 2 to 5 µM.

Take `c1ccc(CNC2=Nc3ccccc3NC23CC2CCC(C3)N2)cc1` [D-9]: the IC50 (in series [1] (setting [6]); with Pfa1 cells (setting [5])) was below 0.5 µM throughout. In addition, the CC50 in series [2] lay in the range of 5 to 10 µM.

On to `Clc1cccc(CNC2=Nc3ncccc3NC23CCCCC3)c1` [D-10], for which the IC50 (in series [1] (setting [4]); in the series with Pfa1 cells (setting [5])) was below 5 µM throughout. In addition, the CC50 in series [2] fell in the range of 1 to 5 µM.

With `Clc1cccc(CNC2=Nc3cc(Cl)ncc3NC23CCCCC3)c1` [D-11], the IC50 (in series [1] (setting [4]); with Pfa1 cells (setting [5])) was below 5 µM in each case. Moreover, the CC50 in series [2] is 10 to 50 µM.

In the case of `c1csc(CNC2=Nc3ccccc3NC23CCCCC3)c1` [D-12], the IC50 in series [1] (setting [4]) was below 1 µM; in the series with Pfa1 cells (setting [5]), below 5 µM. Moreover, the CC50 in series [2] was in the range of 10 to 50 µM.

On to `c1cncc(CNC2=Nc3ccccc3NC23CCCCC3)c1` [D-13], for which the IC50 (in series [1] (setting [4]); with Pfa1 cells (setting [5])) was below 5 µM throughout. The CC50 in series [2] was 50 to 100 µM.

For the compound `CCOC(=O)c1ccc2c(c1)N=C(NC1CCCCC1)C1(CCCCC1)N2` [D-14], the figures for the IC50 (in series [1] (setting [4]); in the series on Pfa1 cells (setting [5])) were below 0.5 µM and below 1 µM, respectively. Besides, in series [2], the CC50 was 10 to 50 µM.

As for `CC(C)(C)NC1=Nc2ccccc2NC12CCOCC2` [D-15], the IC50 (in series [1] (setting [4]); with Pfa1 cells (setting [5])) was below 5 µM throughout. For the same compound, in series [2], the CC50 was in the range of 50 to 100 µM.

Regarding `CC(C)(C)NC1=Nc2ccccc2NC12CCSCC2` [D-16], the IC50 (in series [1] (setting [4]); in the series with Pfa1 cells (setting [5])) was below 1 µM each time. In addition, the CC50 in series [2] was above 5 µM.

`Cc1cc(CNC2=Nc3ccccc3NC23CCCCC3)on1` [D-17]: the IC50 in series [1] (setting [4]) is below 2 µM; with Pfa1 cells (setting [5]) it was below 5 µM. The CC50 in series [2] was above 50 µM.

Consider `Clc1cc2c(cc1Cl)NC1(CCCCC1)C(NCc1cccnc1)=N2` [D-19], for which the IC50 was below 0.05 µM in series [1] (setting [4]) and below 0.5 µM with Pfa1 cells (setting [5]). Besides, in series [2], the CC50 is 10 to 50 µM.

Turning to `c1ccc2c(c1)N=C(NCc1nccs1)C1(CCCCC1)N2` [D-20], the IC50 is below 2 µM in series [1] (setting [4]) and below 5 µM with Pfa1 cells (setting [5]). Further, the CC50 in series [2] is above 50 µM.

Regarding `Clc1cc2c(cc1Cl)NC1(CCCCC1)C(NCc1cccs1)=N2` [D-21], the IC50 in series [1] (setting [4]) is below 0.2 µM; in the series with Pfa1 cells (setting [5]), below 0.5 µM. For the same compound, the CC50 in series [2] is 5 to 10 µM.

As for `c1ccc2c(c1)N=C(NCc1cncs1)C1(CCCCC1)N2` [D-22], the IC50 (in series [1] (setting [4]); in the series on Pfa1 cells (setting [5])) was below 5 µM throughout. Besides, in series [2], the CC50 was above 50 µM.

Take `c1coc(CNC2=Nc3ccccc3NC23CCCCC3)c1` [D-23]: the IC50 (in series [1] (setting [4]); in the series on Pfa1 cells (setting [5])) was below 5 µM throughout. In series [2], the CC50 is above 50 µM.

As for `c1ccc2c(c1)N=C(NCc1ccncc1)C1(CCCCC1)N2` [D-24], the IC50 (in series [1] (setting [4]); with Pfa1 cells (setting [5])) was below 5 µM throughout. Besides, the CC50 in series [2] is above 50 µM.

As to `c1csc(CNC2=Nc3ccccc3NC23CCNCC3)c1` [D-181], the IC50 in series [1] (setting [4]) was below 0.1 µM; in the series on Pfa1 cells (setting [5]) it was below 0.5 µM. Moreover, in series [2], the CC50 is 20 to 50 µM.

As for `CN1CCC2(CC1)Nc1cc(Cl)c(Cl)cc1N=C2NCc1cccc(Cl)c1` [F-24], the IC50 in series [1] (setting [4]) is below 0.02 µM; with Pfa1 cells (setting [5]) it was below 0.05 µM. Also, the CC50 in series [2] is 0.2 to 0.5 µM.

As to `C#CCCCCCCCCC(=O)N1CCC2(CC1)Nc1ccccc1N=C2NCc1cccc(Cl)c1` [F-25], the IC50 (in series [1] (setting [4]); in the series on Pfa1 cells (setting [5])) was below 0.2 µM throughout. Moreover, the CC50 in series [2] fell in the range of 10 to 20 µM.

Consider `C#CCCCCCCCCC(=O)N1CCC2(CC1)Nc1cc(Cl)c(Cl)cc1N=C2NCc1cccc(Cl)c1` [F-26], for which the IC50 (in series [1] (setting [4]); in the series on Pfa1 cells (setting [5])) was below 0.2 µM throughout. In addition, the CC50 in series [2] fell in the range of 10 to 20 µM.

On to `Clc1ccccc1CNC1=Nc2ccccc2NC12CCNCC2` [N-1], for which the “Percentage cell survival” value in the series with SH-SY5Y cells was “Non-inhibition of apoptotic cell-death”.

`Clc1ccc(CNC2=Nc3ccccc3NC23CCOCC3)cc1` [O/S-3]: in the series with SH-SY5Y cells, the “Percentage cell survival” value is given as “Non-inhibition of apoptotic cell-death”.

These data come from patent US10647687B2, “Spiropyrazine derivatives as inhibitors of non-apoptotic regulated cell-death” (Helmholtz Zentrum München Deutsches Forschungszentrum für …, priority 2014, dated 2020).
